From article PMC11720353, “Clove Essential Oil as a Source of Antitumoral Compounds Capable of Crossing the Blood–Brain Barrier: A Focus on the Effects of β-Caryophyllene and Eugenol in a Glioblastoma Cell Line” (International Journal of Molecular Sciences, 2024) come the findings set out here.

Common to all, as to assay type: cell-based, human
The subject of series [1] is U87 cells. Briefly: Clonogenic cell survival assay. To be noted: EU 200 µM, BCA 125 µM, alone or in combination, 14 days. The protocol: An evaluation of the antiproliferative effect via clonogenic assay on the tumoral U87 cells was performed using an adapted protocol from the previously described procedure. Briefly, U87 cells (0.8 × 10^3 cells/well) were seeded into 6-well plates and incubated for 24 h. After the incubation, based on the results obtained from the cell viability assay and synergistic score, the cells were treated either with EO single compounds diluted in ethanol alone (EU 200 µM and BCA 125 µM) or in combination for 14 days with the media being changed every 2/3 days. The cells without treatment were considered the control condition. Following the incubation, the cells were washed with PBS, fixed with paraformaldehyde (PFA) and stained with 0.1% crystal violet solution. The number of colonies was counted by microscopy, and the surviving fraction (SF) was calculated as the mean colonies/number of cells seeded.

Series [2] concerns HMC3 cells. As to the kind of experiment: Cell death assay (Annexin V/PI, flow cytometry). To be noted: EU 200 µM, BCA 125 µM, alone or in combination, 24 h. (In general: A flow cytometer gives signals particle by particle.)
Protocol: HMC3 and U87 cells were seeded in duplicate into 12-well plates (10 × 10^4 cells/well). After 24 h of incubation at 37 °C and 5% CO2, the medium was replaced, and the cells were treated either with EU (200 µM) or BCA (125 µM), alone and in combination (EU 200 µM + BCA 125 µM). Following the 24 h treatment, the cells were co-stained with AV-APC and PI according to the manufacturer’s protocol (Biolegend, San Diego, CA, USA). Briefly, the cells were resuspended in binding buffer (100 µL) and incubated with AV-APC solution (5 µL) and PI solution (2 µL) for 15 min at room temperature. Then, the cells were diluted in a binding buffer (400 µL). A six-parameter, four-color FACSCalibur flow cytometer (Becton Dickinson, San Jose, CA, USA) was used, and at least 10,000 events were collected by acquisition using CellQuest software (Becton Dickinson, San Jose, CA, USA). The results were analyzed with the Paint-a-Gate software and expressed in percentage (%).
Series [3] has as its system U87 cells. Briefly: Metabolic activity (Alamar blue) assay and HSA synergy analysis. To be noted: EU 2.5, 25, 200 µM or BCA 1.25, 12.5, 125 µM alone, 24-72 h. The protocol: To evaluate the cytotoxic/antiproliferative potential of BCA and/or EU, the U87 and HMC3 cells were seeded, in triplicate, into 48-well culture plates (4 × 10^4 cells/well). After 24 h, the medium was replaced, and the cells were treated either with the vehicle (ethanol) or with different concentrations of EO single molecules, diluted in ethanol alone ([…]; BCA: 1.25 µM, µM, 125 µM) or in combination (EU 2 µM and BCA 1.25 µM; EU 20 µM and BCA 12.5 µM; and EU 200 µM and BCA 125 µM) in order to evaluate the possible synergistic effects. The final concentration of ethanol in the cell medium was kept lower than 0.1%. Non-treated cells were considered the control condition. Metabolic activity was evaluated using a modified Alamar blue® assay, as previously described. […] After 2 h of incubation at 5% CO2 and 37 °C, the absorbance was read at 570 and 600 nm in a BioTeck (BioTek Instruments, Inc., Winooski, VT, USA). The absorbance results were obtained using the Gen5 program. The metabolic activity was then calculated by the following equation: Metabolicactivity %=A570−A600 oftreated cells/A570−A600 ofcontrol cells×100 All data were analyzed using the software GraphPad Prism v.9.00 (GraphPad Software, San Diego, CA, USA). All in vitro experiments were performed in triplicate, and the acquired results were expressed as means ± SEM. […]

Turning to `C=C1CC/C=C(\C)CC[C@@H]2[C@@H]1CC2(C)C` [BCA, β-Caryophyllene], the “decrease of clonal growth / colony formation with respect to control” value in series [1] is −63.8%. Also, in series [2], the cell viability entry is listed as “did not affect”. For the same compound, the “reduction in metabolic activity, single compounds” value in series [3] is “No reduction”.
